The source of these data is ChEMBL document CHEMBL3046567, “Potential applications of violacein: a microbial pigment” (Med Chem Res, 2012).

Converted amounts (≈) assume the structure as drawn.

Assay [1] has as its system Mus musculus. The assay is described as follows: Inhibition of HCl/ethanol- induced gastric damage in Mus musculus (mouse) at 30 mg/kg. It is filed as functional. The conditions noted are these: Stomach.
Assay [2] deals with Leishmania amazonensis. Put plainly: Antiparasitic activity against Leishmania amazonensis MHOM/BR /77/LTB0016 promastigote at 16.8 uM. The format is functional.
Assay [3] deals with Leishmania amazonensis. The assay is described as follows: Antiparasitic activity against Leishmania amazonensis MHOM/BR /77/LTB0016 after 24 hr. The format is functional, organism-based. As to conditions: MHOM/BR /77/LTB0016, 24 h.
For another assay, the system named is MOLT-4. The assay is described as follows: Cytotoxicity against Homo sapiens (human) MOLT4 cells. It is filed as functional.
Assay [4] relates to Mus musculus. Put plainly: Inhibition of HCl/ethanol- induced gastric damage in Mus musculus (mouse) at 10 mg/kg, po, sd. The conditions noted are these: Stomach. The format is functional.
In another assay the test system is Vero. Put plainly: Cytotoxicity against […] Vero cells. The format is cell-based. The conditions noted are these: Chlorocebus sabaeus.
A further assay relates to HCT-116. Put plainly: Cytotoxicity against Homo sapiens (human) HCT116 cells after 24 to 48 hr by MTT assay. It is filed as functional, cell-based.
In a further assay the test system is Enterovirus C. The assay is described as follows: Antiviral activity against Enterovirus C (Poliovirus) infected HeLa cells at 0.063 ug/ml. The format is functional.
The next assay concerns HT-29. The assay is described as follows: Cytotoxicity against Homo sapiens (human) HT-29 cells after 24 to 48 hr by MTT assay. The format is functional, cell-based. (Tetrazolium dyes change colour on reduction, which living cells bring about.)
In another assay the test system is Trypanosoma cruzi. The assay is described as follows: Antitrypanosomal activity against trypomastigote of Trypanosoma cruzi Y infected in albino mouse assessed as reduction in parasitemia at 100 mg/kg, ip for 7 days. It is filed as functional. As to conditions: 168 h, route intraperitoneal.
Assay [5] has as its system Mycobacterium tuberculosis. The assay is described as follows: Antimycobacterial activity against Mycobacterium tuberculosis H37Rv. The format is functional.
Another assay deals with V79. Put plainly: Cytotoxicity against Cricetulus griseus V79 cells. It is filed as functional, cell-based.
The next assay relates to KM12. The assay is described as follows: Cytotoxicity against Homo sapiens (human) KM12 cells. The format is functional.
A further assay has as its system K562. The assay is described as follows: Cytotoxicity against Homo sapiens (human) K562 cells. The format is functional, cell-based.
Another assay concerns HL-60. Put plainly: Cytotoxicity against Homo sapiens (human) HL60 cells. It is filed as functional, cell-based.
The subject of assay [6] is Leishmania amazonensis. The assay is described as follows: Antiparasitic activity against Leishmania amazonensis MHOM/BR /77/LTB0016 promastigote at 460.8 uM. The format is functional.
A further assay has as its system Caco-2. The assay is described as follows: Cytotoxicity against Homo sapiens (human) Caco2 cells after 24 to 48 hr by MTT assay. It is filed as functional, cell-based.
Assay [7] can be described thus: Cytotoxicity against Macaca mulatta (Rhesus monkey) MA104 cells. It is filed as cell-based.
Assay [8] is described as follows: Cytotoxicity against Homo sapiens (human) Lymphocyte. The format is cell-based.
Assay [9] in a line: Cytotoxicity against Mus musculus (mouse) EAT cells. The format is functional, cell-based.
The next assay has as its system DLD-1. The assay is described as follows: Cytotoxicity against Homo sapiens (human) DLD1 cells after 24 to 48 hr by MTT assay. It is filed as functional, cell-based.
Another assay deals with U-937. Put plainly: Cytotoxicity against Homo sapiens (human) U937 cells. It is filed as functional, cell-based.
A further assay deals with NCI-H460. Put plainly: Cytotoxicity against Homo sapiens (human) NCI-H460 cells. It is filed as functional.
Assay [10] in a line: Cytotoxicity against Macaca mulatta (Rhesus monkey) FRhK4 cells. It is filed as cell-based. The conditions noted are these: FRhK-4.
For another assay, the system named is HEp-2. Put plainly: Cytotoxicity against Homo sapiens (human) Hep2 cells. The format is cell-based.

For `Cc1c(OCC(F)(F)F)ccnc1C[S+]([O-])c1nc2ccccc2[nH]1` (configuration not stated) [LANSOPRAZOLE], in the assay on Mus musculus [1], the inhibition in vivo at 30 mg/kg was 63%.
As for `N=C(N)c1ccc(OCCCCCOc2ccc(C(=N)N)cc2)cc1` [PENTAMIDINE], in the assay on Leishmania amazonensis [2], the inhibition at 16.8 µM was found to be 100%. For the same compound, the midpoint of the response with Leishmania amazonensis [3], the EC50, lay at 460 nM.
`O=C1NC(c2c[nH]c3ccc(O)cc23)=C/C1=C1\C(=O)Nc2ccccc21` [VIOLACEIN]: the GI50 with MOLT-4, in the assay with KM12 and in the assay with NCI-H460 was 30 nM in each case. For the same compound, in the assay with Mus musculus [4], testing at 10 mg/kg gave an inhibition in vivo of 85%. Besides, the IC50 in the assay on Vero was 2200 nM; in the assay on HCT-116, over 1500 nM; in the assay with HT-29, over 1500 nM; with V79, 5000 nM; in the assay with K562, under 1000 nM; with HL-60, 800 nM. Further, the IC50 in the assay on Caco-2 is over 1500 nM; in [7], 2200 nM; in [8] it was 10000 nM; in assay [9], 5000 nM; in the assay with DLD-1, over 1500 nM; with U-937, under 1000 nM. The IC50 (in [10]; in the assay on HEp-2) was 2200 nM in each case. The compound further yielded an inhibition at 0.063 µg/mL with Enterovirus C of 56%. For the same compound, the inhibition in vivo at 100 mg/kg in the assay with Trypanosoma cruzi is 4%. Besides, the MBC in [5] stood at 128 µg/mL (≈ 373 µM). In assay [5], this compound yielded an MIC of 64 µg/mL (≈ 186 µM). The same compound showed an inhibition at 460.8 µM with Leishmania amazonensis [6] of 100%. Also, the EC50 in the assay on Leishmania amazonensis [3] was 4300 nM.

Broadly, the inhibition in vivo is how much of the control response was suppressed. Usually inhibition stands for the relative decrease from the control value, in per cent. Lower therefore signals little suppression. As usually defined, the EC50 is the concentration that produces a half-maximal response. What is called GI50 is the concentration at which growth is held to half of that of the control. Low readings indicate greater sensitivity of the cells, high ones lower sensitivity of the cells. The IC50 is the concentration that gives 50% inhibition. A low value points to greater potency. Usually MBC stands for the smallest concentration meeting the test's criterion for killing. The low end stands for greater bactericidal potency, the high end for weaker bactericidal potency. In general, MIC refers to the smallest concentration in the dilution series that meets the test's criterion for growth inhibition.
